Data reported in patent publication US8192962B2, “Processes for detecting toxic substances” (Daikin Industries, Ltd., priority 2001, dated 2012).

Tested on: Metabolism protein genes
Experiment: DNA chip mRNA expression in yeast, metabolism protein genes (Table 7)
Assay type: cell-based, Saccharomyces cerevisiae S288C
Summary of the method: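 Whole-genome yeast DNA chip hybridization (65° C., >12 h) of Cy-labeled cDNA from S288C cells exposed 2 h at 25° C. to a sub-lethal toxicant dose in YPD; value is intensity relative to chemical-free control.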

Cl[C@H]1[C@H](Cl)[C@@H](Cl)[C@@H](Cl)[C@H](Cl)[C@H]1Cl [(7), γ-hexachlorocyclohexane]
1.7: The level of expressed mRNA in the presence of chemical substance/The level of expressed mRNA in the absence of chemical substance (yeast gene YBR183W) | The level of expressed mRNA in the presence of chemical substance/The level of expressed mRNA in the absence of chemical substance (yeast gene YJR155W)
1.4: The level of expressed mRNA in the presence of chemical substance/The level of expressed mRNA in the absence of chemical substance (yeast gene YDR019C) | level of expressed mRNA in the presence/in the absence of chemical substance (yeast gene YDR284C) | The level of expressed mRNA in the presence of chemical substance/The level of expressed mRNA in the absence of chemical substance (yeast gene YFL056C) | level of expressed mRNA in the presence/in the absence of chemical substance (yeast gene YGL115W) | The level of expressed mRNA in the presence of chemical substance/The level of expressed mRNA in the absence of chemical substance (yeast gene YGR037C) | The level of expressed mRNA in the presence of chemical substance/The level of expressed mRNA in the absence of chemical substance (yeast gene YGR256W) | level of expressed mRNA in the presence/in the absence of chemical substance (yeast gene YGR288W) | The level of expressed mRNA in the presence of chemical substance/The level of expressed mRNA in the absence of chemical substance (yeast gene YHR176W)
2.8: The level of expressed mRNA in the presence of chemical substance/The level of expressed mRNA in the absence of chemical substance (yeast gene YER053C)
1.2: The level of expressed mRNA in the presence of chemical substance/The level of expressed mRNA in the absence of chemical substance (yeast gene YCR098C) | level of expressed mRNA in the presence/in the absence of chemical substance (yeast gene YDR073W) | level of expressed mRNA in the presence/in the absence of chemical substance (yeast gene YDR277C) | level of expressed mRNA in the presence/in the absence of chemical substance (yeast gene YER015W) | The level of expressed mRNA in the presence of chemical substance/The level of expressed mRNA in the absence of chemical substance (yeast gene YIL167W) | The level of expressed mRNA in the presence of chemical substance/The level of expressed mRNA in the absence of chemical substance (yeast gene YJL068C)
2.3: The level of expressed mRNA in the presence of chemical substance/The level of expressed mRNA in the absence of chemical substance (yeast gene YJL031C)
2.0: The level of expressed mRNA in the presence of chemical substance/The level of expressed mRNA in the absence of chemical substance (yeast gene YFR047C)
0.4: The level of expressed mRNA in the presence of chemical substance/The level of expressed mRNA in the absence of chemical substance (yeast gene YBR029C) | The level of expressed mRNA in the presence of chemical substance/The level of expressed mRNA in the absence of chemical substance (yeast gene YHR137W)
0.9: The level of expressed mRNA in the presence of chemical substance/The level of expressed mRNA in the absence of chemical substance (yeast gene YAL038W) | The level of expressed mRNA in the presence of chemical substance/The level of expressed mRNA in the absence of chemical substance (yeast gene YCR048W) | level of expressed mRNA in the presence/in the absence of chemical substance (yeast gene YDR123C) | The level of expressed mRNA in the presence of chemical substance/The level of expressed mRNA in the absence of chemical substance (yeast gene YDR502C) | The level of expressed mRNA in the presence of chemical substance/The level of expressed mRNA in the absence of chemical substance (yeast gene YER096W) | level of expressed mRNA in the presence/in the absence of chemical substance (yeast gene YER120W) | The level of expressed mRNA in the presence of chemical substance/The level of expressed mRNA in the absence of chemical substance (yeast gene YFL031W) | level of expressed mRNA in the presence/in the absence of chemical substance (yeast gene YGL012W) | level of expressed mRNA in the presence/in the absence of chemical substance (yeast gene YGR096W) | level of expressed mRNA in the presence/in the absence of chemical substance (yeast gene YHR123W) | The level of expressed mRNA in the presence of chemical substance/The level of expressed mRNA in the absence of chemical substance (yeast gene YJL219W)
13.4: The level of expressed mRNA in the presence of chemical substance/The level of expressed mRNA in the absence of chemical substance (yeast gene YCL064C)
1.3: The level of expressed mRNA in the presence of chemical substance/The level of expressed mRNA in the absence of chemical substance (yeast gene YCL009C) | level of expressed mRNA in the presence/in the absence of chemical substance (yeast gene YCR010C) | The level of expressed mRNA in the presence of chemical substance/The level of expressed mRNA in the absence of chemical substance (yeast gene YIL154C)
1.8: The level of expressed mRNA in the presence of chemical substance/The level of expressed mRNA in the absence of chemical substance (yeast gene YFL057C) | The level of expressed mRNA in the presence of chemical substance/The level of expressed mRNA in the absence of chemical substance (yeast gene YJL099W)
0.5: The level of expressed mRNA in the presence of chemical substance/The level of expressed mRNA in the absence of chemical substance (yeast gene YDR380W) | The level of expressed mRNA in the presence of chemical substance/The level of expressed mRNA in the absence of chemical substance (yeast gene YDR497C) | level of expressed mRNA in the presence/in the absence of chemical substance (yeast gene YER081W) | level of expressed mRNA in the presence/in the absence of chemical substance (yeast gene YJR143C)
0.6: The level of expressed mRNA in the presence of chemical substance/The level of expressed mRNA in the absence of chemical substance (yeast gene YAL012W) | level of expressed mRNA in the presence/in the absence of chemical substance (yeast gene YDR178W) | level of expressed mRNA in the presence/in the absence of chemical substance (yeast gene YDR400W) | The level of expressed mRNA in the presence of chemical substance/The level of expressed mRNA in the absence of chemical substance (yeast gene YFL030W) | The level of expressed mRNA in the presence of chemical substance/The level of expressed mRNA in the absence of chemical substance (yeast gene YGR055W)
0.3: level of expressed mRNA in the presence/in the absence of chemical substance (yeast gene YCR034W)
1.1: level of expressed mRNA in the presence/in the absence of chemical substance (yeast gene YBR003W) | level of expressed mRNA in the presence/in the absence of chemical substance (yeast gene YBR011C) | level of expressed mRNA in the presence/in the absence of chemical substance (yeast gene YDR345C) | The level of expressed mRNA in the presence of chemical substance/The level of expressed mRNA in the absence of chemical substance (yeast gene YGR282C)
1.6: The level of expressed mRNA in the presence of chemical substance/The level of expressed mRNA in the absence of chemical substance (yeast gene YER026C) | The level of expressed mRNA in the presence of chemical substance/The level of expressed mRNA in the absence of chemical substance (yeast gene YER178W) | The level of expressed mRNA in the presence of chemical substance/The level of expressed mRNA in the absence of chemical substance (yeast gene YGL248W) | The level of expressed mRNA in the presence of chemical substance/The level of expressed mRNA in the absence of chemical substance (yeast gene YHR111W) | The level of expressed mRNA in the presence of chemical substance/The level of expressed mRNA in the absence of chemical substance (yeast gene YHR174W) | The level of expressed mRNA in the presence of chemical substance/The level of expressed mRNA in the absence of chemical substance (yeast gene YIL045W) | The level of expressed mRNA in the presence of chemical substance/The level of expressed mRNA in the absence of chemical substance (yeast gene YIL107C)
1.5: level of expressed mRNA in the presence/in the absence of chemical substance (yeast gene YDR050C) | level of expressed mRNA in the presence/in the absence of chemical substance (yeast gene YJL167W) | level of expressed mRNA in the presence/in the absence of chemical substance (yeast gene YJL216C)
2.1: The level of expressed mRNA in the presence of chemical substance/The level of expressed mRNA in the absence of chemical substance (yeast gene YBR256C) | The level of expressed mRNA in the presence of chemical substance/The level of expressed mRNA in the absence of chemical substance (yeast gene YJR148W)
5.5: The level of expressed mRNA in the presence of chemical substance/The level of expressed mRNA in the absence of chemical substance (yeast gene YFL014W)
3.9: The level of expressed mRNA in the presence of chemical substance/The level of expressed mRNA in the absence of chemical substance (yeast gene YDR516C)
1.0: The level of expressed mRNA in the presence of chemical substance/The level of expressed mRNA in the absence of chemical substance (yeast gene YBR222C) | The level of expressed mRNA in the presence of chemical substance/The level of expressed mRNA in the absence of chemical substance (yeast gene YER069W) | The level of expressed mRNA in the presence of chemical substance/The level of expressed mRNA in the absence of chemical substance (yeast gene YGL209W) | The level of expressed mRNA in the presence of chemical substance/The level of expressed mRNA in the absence of chemical substance (yeast gene YIR036C) | The level of expressed mRNA in the presence of chemical substance/The level of expressed mRNA in the absence of chemical substance (yeast gene YJL172W)
2.2: The level of expressed mRNA in the presence of chemical substance/The level of expressed mRNA in the absence of chemical substance (yeast gene YGR194C) | The level of expressed mRNA in the presence of chemical substance/The level of expressed mRNA in the absence of chemical substance (yeast gene YIL155C)
1.9: level of expressed mRNA in the presence/in the absence of chemical substance (yeast gene YHR210C)
0.8: level of expressed mRNA in the presence/in the absence of chemical substance (yeast gene YDR408C) | level of expressed mRNA in the presence/in the absence of chemical substance (yeast gene YDR483W) | level of expressed mRNA in the presence/in the absence of chemical substance (yeast gene YFL011W) | level of expressed mRNA in the presence/in the absence of chemical substance (yeast gene YGL205W) | level of expressed mRNA in the presence/in the absence of chemical substance (yeast gene YGR204W) | level of expressed mRNA in the presence/in the absence of chemical substance (yeast gene YHR025W) | level of expressed mRNA in the presence/in the absence of chemical substance (yeast gene YIL006W) | The level of expressed mRNA in the presence of chemical substance/The level of expressed mRNA in the absence of chemical substance (yeast gene YIR034C) | The level of expressed mRNA in the presence of chemical substance/The level of expressed mRNA in the absence of chemical substance (yeast gene YJR137C)
0.7: level of expressed mRNA in the presence/in the absence of chemical substance (yeast gene YBR020W) | The level of expressed mRNA in the presence of chemical substance/The level of expressed mRNA in the absence of chemical substance (yeast gene YBR023C) | level of expressed mRNA in the presence/in the absence of chemical substance (yeast gene YEL063C) | The level of expressed mRNA in the presence of chemical substance/The level of expressed mRNA in the absence of chemical substance (yeast gene YGL022W) | level of expressed mRNA in the presence/in the absence of chemical substance (yeast gene YGR191W) | level of expressed mRNA in the presence/in the absence of chemical substance (yeast gene YJL121C) | level of expressed mRNA in the presence/in the absence of chemical substance (yeast gene YJR077C)
